In ChEMBL document CHEMBL4334431, “Gramicidin S-inspired antimicrobial cyclodextrin to disrupt gram-negative and gram-positive bacterial membranes” (Medchemcomm, 2019):
In brackets after ≈: the same amount, converted by molar mass. Activity calls are given as the source filed them. The rule behind the calls is not given here. Square brackets hold non-standard residues; d marks the D form. Peptide text beside a SMILES is read from it. Orn = NCCC[C@H](N)C(=O)O

Key:
[1] = Partition coefficient, log P of compound; type: physicochemical; conditions: octanol/water
Staphylococcus aureus [2] = experiment: Antibacterial activity against Staphylococcus aureus FDA 209P assessed as bacterial growth inhibition after 20 hrs by liquid microdilution method; type: functional
Bacillus subtilis = experiment: Antibacterial activity against Bacillus subtilis 168 assessed as bacterial growth inhibition after 20 hrs by liquid microdilution method; type: functional; conditions: Bacillus subtilis, 168, 20 h
Salmonella typhimurium = experiment: Antibacterial activity against Salmonella typhimurium LT2 assessed as bacterial growth inhibition after 20 hrs by liquid microdilution method; type: functional, Salmonella enterica subsp. enterica serovar Typhimurium; conditions: Salmonella enterica, LT2, 20 h
Pseudomonas aeruginosa [3] = experiment: Antibacterial activity against Pseudomonas aeruginosa PAO1 assessed as bacterial growth inhibition after 20 hrs by liquid microdilution method; type: functional
Escherichia coli [4] = experiment: Antibacterial activity against Escherichia coli K12 W3110 assessed as bacterial growth inhibition after 20 hrs by liquid microdilution method; type: functional
[5] = Haemolytic activity in rabbit RBCs at 50 uM relative to control; type: ADME, cell-based, Oryctolagus cuniculus, Erythrocyte; conditions: rabbit red blood cells (erythrocytes), read-out: Activity
Escherichia coli [6] = experiment: Induction of membrane permeabilization in Escherichia coli K12 W3110 assessed as decrease in cell viability; type: functional, organism-based
Escherichia coli [7] = experiment: Induction of membrane permeabilization in Escherichia coli K12 W3110 assessed as increase in potassium efflux; type: functional, organism-based
Staphylococcus aureus [8] = experiment: Induction of membrane permeabilization in Staphylococcus aureus FDA 209P assessed as increase in potassium efflux; type: functional, organism-based
Staphylococcus aureus [9] = experiment: Induction of membrane permeabilization in Staphylococcus aureus FDA 209P assessed as decrease in cell viability; type: functional, organism-based
Escherichia coli [10] = experiment: Antimicrobial activity against ESBL-producing Escherichia coli assessed as bacterial growth inhibition after 20 hrs by liquid microdilution method; type: functional
Escherichia coli [11] = experiment: Antimicrobial activity against carbapenem-resistant Escherichia coli assessed as bacterial growth inhibition after 20 hrs by liquid microdilution method; type: functional
Pseudomonas aeruginosa [12] = experiment: Antibacterial activity against carbapenem-reistant Pseudomonas aeruginosa PAO1 assessed as bacterial growth inhibition after 20 hrs by liquid microdilution method; type: functional; conditions: PAO1, 20 h

Compound	logP [1]	MIC (Staphylococcus aureus [2]) [µM]	MIC (Bacillus subtilis) [µM]	MIC (Salmonella typhimurium) [µM]	MIC (Pseudomonas aeruginosa [3]; PAO1, 20 h) [µM]	MIC (Escherichia coli [4]; K-12 substr. W3110, 20 h) [µM]	MIC (Pseudomonas aeruginosa [3]) [µM]	MIC (Escherichia coli [4]; K-12 substr. W3110) [µM]	hemolysis at 50 µM [5] [%]	Activity (Escherichia coli [6])	Activity (Escherichia coli [7])	Activity (Staphylococcus aureus [8])	Activity (Staphylococcus aureus [9])	MIC (Escherichia coli [10]) [µM]	MIC (Escherichia coli [11]) [µM]	MIC (Pseudomonas aeruginosa [12]) [µM]
CC(C)C(=O)O[C@@H]1[C@@H](OC(=O)C(C)C)[C@H]2O[C@H]3[C@H](OC(=O)C(C)C)[C@@H](OC(=O)C(C)C)[C@@H](O[C@H]4[C@H](OC(=O)C(C)C)[C@@H](OC(=O)C(C)C)[C@@H](O[C@H]5[C@H](OC(=O)C(C)C)[C@@H](OC(=O)C(C)C)[C@@H](O[C@H]6[C@H](OC(=O)C(C)C)[C@@H](OC(=O)C(C)C)[C@@H](O[C@H]7[C@H](OC(=O)C(C)C)[C@@H](OC(=O)C(C)C)[C@@H](O[C@H]8[C@H](OC(=O)C(C)C)[C@@H](OC(=O)C(C)C)[C@@H](O[C@H]9[C@H](OC(=O)C(C)C)[C@@H](OC(=O)C(C)C)[C@@H](O[C@@H]1[C@@H](Cn1cc(CN)nn1)O2)O[C@@H]9Cn1cc(CN)nn1)O[C@@H]8Cn1cc(CN)nn1)O[C@@H]7Cn1cc(CN)nn1)O[C@@H]6Cn1cc(CN)nn1)O[C@@H]5Cn1cc(CN)nn1)O[C@@H]4Cn1cc(CN)nn1)O[C@@H]3Cn1cc(CN)nn1	0.24	> 32	> 32	> 31	31 (≈ 94.8 µg/mL)	> 32	–	–	101	–	–	–	–	–	–	–
COLISTIN	–	–	–	–	–	–	2	0.7	–	–	–	–	–	–	–	–
CC(=O)O[C@@H]1[C@@H](OC(C)=O)[C@H]2O[C@H]3[C@H](OC(C)=O)[C@@H](OC(C)=O)[C@@H](O[C@H]4[C@H](OC(C)=O)[C@@H](OC(C)=O)[C@@H](O[C@H]5[C@H](OC(C)=O)[C@@H](OC(C)=O)[C@@H](O[C@H]6[C@H](OC(C)=O)[C@@H](OC(C)=O)[C@@H](O[C@H]7[C@H](OC(C)=O)[C@@H](OC(C)=O)[C@@H](O[C@H]8[C@H](OC(C)=O)[C@@H](OC(C)=O)[C@@H](O[C@H]9[C@H](OC(C)=O)[C@@H](OC(C)=O)[C@@H](O[C@@H]1[C@@H](Cn1cc(CN)nn1)O2)O[C@@H]9Cn1cc(CN)nn1)O[C@@H]8Cn1cc(CN)nn1)O[C@@H]7Cn1cc(CN)nn1)O[C@@H]6Cn1cc(CN)nn1)O[C@@H]5Cn1cc(CN)nn1)O[C@@H]4Cn1cc(CN)nn1)O[C@@H]3Cn1cc(CN)nn1	-2.2	> 36	> 36	> 36	> 36	> 36	–	–	1	Active	Active	Active	Active	–	–	–
CCCCCCCCCC(=O)N[C@@H](Cc1c[nH]c2ccccc12)C(=O)N[C@H](CC(N)=O)C(=O)N[C@@H](CC(=O)O)C(=O)N[C@@H]1C(=O)NCC(=O)N[C@@H](CCCN)C(=O)N[C@@H](CC(=O)O)C(=O)N[C@H](C)C(=O)N[C@@H](CC(=O)O)C(=O)NCC(=O)N[C@H](CO)C(=O)N[C@@H]([C@H](C)CC(=O)O)C(=O)N[C@@H](CC(=O)c2ccccc2N)C(=O)O[C@@H]1C	–	3 (≈ 4.86 µg/mL)	–	–	–	–	–	–	–	–	–	–	–	–	–	–
CCC(=O)O[C@@H]1[C@@H](OC(=O)CC)[C@H]2O[C@H]3[C@H](OC(=O)CC)[C@@H](OC(=O)CC)[C@@H](O[C@H]4[C@H](OC(=O)CC)[C@@H](OC(=O)CC)[C@@H](O[C@H]5[C@@H](OC(=O)CC)[C@@H](OC(=O)CC)[C@H](O[C@H]6[C@H](OC(=O)CC)[C@@H](OC(=O)CC)[C@@H](O[C@H]7[C@H](OC(=O)CC)[C@@H](OC(=O)CC)[C@@H](O[C@H]8[C@H](OC(=O)CC)[C@@H](OC(=O)CC)[C@@H](O[C@@H]1[C@@H](Cn1cc(CN)nn1)O2)O[C@@H]8Cn1cc(CN)nn1)O[C@@H]7Cn1cc(CN)nn1)O[C@@H]6Cn1cc(CN)nn1)O[C@@H]5Cn1cc(CN)nn1)O[C@@H]4Cn1cc(CN)nn1)O[C@@H]3Cn1cc(CN)nn1	-0.89	5 (≈ 12.4 µg/mL)	2 (≈ 4.96 µg/mL)	5 (≈ 12.4 µg/mL)	2 (≈ 4.96 µg/mL)	2 (≈ 4.96 µg/mL)	–	–	20	–	–	–	–	6 (≈ 14.9 µg/mL)	11 (≈ 27.3 µg/mL)	6 (≈ 14.9 µg/mL)

Second part, led by results:

logP [1]	MIC (Staphylococcus aureus [2]) [µM]	MIC (Bacillus subtilis) [µM]	MIC (Salmonella typhimurium) [µM]	MIC (Pseudomonas aeruginosa [3]; PAO1, 20 h) [µM]	MIC (Escherichia coli [4]; K-12 substr. W3110, 20 h) [µM]	MIC (Pseudomonas aeruginosa [3]) [µM]	MIC (Escherichia coli [4]; K-12 substr. W3110) [µM]	Compound	hemolysis at 50 µM [5] [%]	Activity (Escherichia coli [6])	Activity (Escherichia coli [7])	Activity (Staphylococcus aureus [8])	Activity (Staphylococcus aureus [9])	MIC (Escherichia coli [10]) [µM]	MIC (Escherichia coli [11]) [µM]	MIC (Pseudomonas aeruginosa [12]) [µM]
0.6	> 31	> 31	> 43	> 43	> 31	–	–	CC(C)CC(=O)O[C@@H]1[C@@H](OC(=O)CC(C)C)[C@H]2O[C@H]3[C@H](OC(=O)CC(C)C)[C@@H](OC(=O)CC(C)C)[C@@H](O[C@H]4[C@H](OC(=O)CC(C)C)[C@@H](OC(=O)CC(C)C)[C@@H](O[C@H]5[C@H](OC(=O)CC(C)C)[C@@H](OC(=O)CC(C)C)[C@@H](O[C@H]6[C@H](OC(=O)CC(C)C)[C@@H](OC(=O)CC(C)C)[C@@H](O[C@H]7[C@H](OC(=O)CC(C)C)[C@@H](OC(=O)CC(C)C)[C@@H](O[C@H]8[C@H](OC(=O)CC(C)C)[C@@H](OC(=O)CC(C)C)[C@@H](O[C@H]9[C@H](OC(=O)CC(C)C)[C@@H](OC(=O)CC(C)C)[C@@H](O[C@@H]1[C@@H](Cn1cc(CN)nn1)O2)O[C@@H]9Cn1cc(CN)nn1)O[C@@H]8Cn1cc(CN)nn1)O[C@@H]7Cn1cc(CN)nn1)O[C@@H]6Cn1cc(CN)nn1)O[C@@H]5Cn1cc(CN)nn1)O[C@@H]4Cn1cc(CN)nn1)O[C@@H]3Cn1cc(CN)nn1	87	–	–	–	–	–	–	–
-2.66	> 45	22 (≈ 42.6 µg/mL)	> 45	> 45	> 45	–	–	NCc1cn(C[C@H]2O[C@@H]3O[C@H]4[C@H](O)[C@@H](O)[C@@H](O[C@H]5[C@H](O)[C@@H](O)[C@@H](O[C@H]6[C@H](O)[C@@H](O)[C@@H](O[C@H]7[C@H](O)[C@@H](O)[C@@H](O[C@H]8[C@H](O)[C@@H](O)[C@@H](O[C@H]9[C@H](O)[C@@H](O)[C@@H](O[C@H]%10[C@@H](O)[C@H](O)[C@@H](O[C@H]2[C@H](O)[C@H]3O)O[C@@H]%10Cn2cc(CN)nn2)O[C@@H]9Cn2cc(CN)nn2)O[C@@H]8Cn2cc(CN)nn2)O[C@@H]7Cn2cc(CN)nn2)O[C@@H]6Cn2cc(CN)nn2)O[C@@H]5Cn2cc(CN)nn2)O[C@@H]4Cn2cc(CN)nn2)nn1	0	–	–	–	–	–	–	–
–	4 (≈ 4.57 µg/mL)	–	–	–	28 (≈ 32 µg/mL)	–	–	CC(C)C[C@@H]1NC(=O)[C@H](CCCN)NC(=O)[C@H](C(C)C)NC(=O)[C@@H]2CCCN2C(=O)[C@@H](Cc2ccccc2)NC(=O)[C@H](CC(C)C)NC(=O)[C@H](CCCN)NC(=O)[C@H](C(C)C)NC(=O)[C@@H]2CCCN2C(=O)[C@@H](Cc2ccccc2)NC1=O (cyclo(V[Orn]L[dF]PV[Orn]L[dF]P))	–	–	–	–	–	–	–	–
-0.06	> 32	> 32	> 32	> 32	> 32	–	–	CCCC(=O)O[C@@H]1[C@@H](OC(=O)CCC)[C@H]2O[C@H]3[C@H](OC(=O)CCC)[C@@H](OC(=O)CCC)[C@@H](O[C@H]4[C@H](OC(=O)CCC)[C@@H](OC(=O)CCC)[C@@H](O[C@H]5[C@H](OC(=O)CCC)[C@@H](OC(=O)CCC)[C@@H](O[C@H]6[C@H](OC(=O)CCC)[C@@H](OC(=O)CCC)[C@@H](O[C@H]7[C@H](OC(=O)CCC)[C@@H](OC(=O)CCC)[C@@H](O[C@H]8[C@H](OC(=O)CCC)[C@@H](OC(=O)CCC)[C@@H](O[C@H]9[C@H](OC(=O)CCC)[C@@H](OC(=O)CCC)[C@@H](O[C@@H]1[C@@H](Cn1cc(CN)nn1)O2)O[C@@H]9Cn1cc(CN)nn1)O[C@@H]8Cn1cc(CN)nn1)O[C@@H]7Cn1cc(CN)nn1)O[C@@H]6Cn1cc(CN)nn1)O[C@@H]5Cn1cc(CN)nn1)O[C@@H]4Cn1cc(CN)nn1)O[C@@H]3Cn1cc(CN)nn1	102	Active	Active	Active	Active	–	–	–
